From ChEMBL document CHEMBL4033756, “Identification of Better Pharmacokinetic Benzothiazinone Derivatives as New Antitubercular Agents” (ACS Med Chem Lett, 2017)
Values after ≈ are worked out from the molar mass of the structure shown.

How the values were obtained:
[1] = test system: Mycobacterium tuberculosis; assay: Antitubercular activity against multidrug-resistant Mycobacterium tuberculosis 12525 after 7 days by microplate alamar blue assay; format: functional; conditions: Mycobacterium tuberculosis, 12525, 168 h
[2] = test system: Mycobacterium tuberculosis; assay: Antitubercular activity against multidrug-resistant Mycobacterium tuberculosis 14231 after 7 days by microplate alamar blue assay; format: functional; conditions: Mycobacterium tuberculosis, 14231, 168 h

Structure (SMILES)	MIC90 [1]	MIC90 [2]
O=c1nc(N2CCC3(CCN(Cc4ccc(F)cc4)C3)CC2)sc2c([N+](=O)[O-])cc(C(F)(F)F)cc12	< 0.035 µM	0.034 µM (≈ 0.0178 µg/mL)
O=c1nc(N2CCC3(CCN(Cc4cccc(F)c4)CC3)CC2)sc2c([N+](=O)[O-])cc(C(F)(F)F)cc12	< 0.035 µM	< 0.035 µM
O=c1nc(N2CCC3(CCN(Cc4ccc(Br)cc4)CC3)CC2)sc2c([N+](=O)[O-])cc(C(F)(F)F)cc12	0.092 µM (≈ 0.055 µg/mL)	0.086 µM (≈ 0.0514 µg/mL)
COc1ccc(CN2CCC3(CCN(c4nc(=O)c5cc(C(F)(F)F)cc([N+](=O)[O-])c5s4)CC3)C2)cc1	0.056 µM (≈ 0.0299 µg/mL)	0.095 µM (≈ 0.0508 µg/mL)
O=c1nc(N2CCC3(CCN(Cc4cc(F)cc(F)c4)CC3)CC2)sc2c([N+](=O)[O-])cc(C(F)(F)F)cc12	< 0.035 µM	< 0.035 µM
O=c1nc(N2CCC3(CCN(Cc4ccc(C(F)(F)F)cc4)CC3)CC2)sc2c([N+](=O)[O-])cc(C(F)(F)F)cc12	< 0.035 µM	< 0.035 µM
COc1ccc(CN2CC3(CCN(c4nc(=O)c5cc(C(F)(F)F)cc([N+](=O)[O-])c5s4)CC3)C2)cc1	0.119 µM (≈ 0.0619 µg/mL)	0.123 µM (≈ 0.064 µg/mL)
O=c1nc(N2CCC3(CCN(Cc4ccccc4)C3)CC2)sc2c([N+](=O)[O-])cc(C(F)(F)F)cc12	< 0.035 µM	< 0.035 µM
CCOC(=O)CN1CCC2(CCN(c3nc(=O)c4cc(C(F)(F)F)cc([N+](=O)[O-])c4s3)CC2)C1	0.08 µM (≈ 0.04 µg/mL)	0.06 µM (≈ 0.03 µg/mL)
NNC(=O)c1ccncc1 [ISONIAZID]	> 292 µM	34.5 µM (≈ 4.73 µg/mL)
O=c1nc(N2CCN(CC3CCCCC3)CC2)sc2c([N+](=O)[O-])cc(C(F)(F)F)cc12 [MACOZINONE]	< 0.035 µM	< 0.035 µM
CO[C@H]1/C=C/O[C@@]2(C)Oc3c(C)c(O)c4c(O)c(c(/C=N/N5CCN(C)CC5)c(O)c4c3C2=O)NC(=O)/C(C)=C\C=C\[C@H](C)[C@H](O)[C@@H](C)[C@@H](O)[C@@H](C)[C@H](OC(C)=O)[C@@H]1C [RIFAMPIN]	27.2 µM (≈ 22.4 µg/mL)	> 48.6 µM
